Earlier results in article PMC8004985, “Affinity Purification of Angiotensin Converting Enzyme Inhibitory Peptides from Wakame (Undaria Pinnatifida) Using Immobilized ACE on Magnetic Metal Organic Frameworks” (Marine Drugs, 2021).
Read-outs that look alike come from different tables or passages of the source.

How the values were obtained:
[1] = amino acid residue; source not given; cited from earlier work
ACE = conditions: cited from earlier work
Source text: Table 1 The summary of ACE inhibitory peptides by conventional approach and affinity purification on different medium. | column: IC50 || Table 2 The summary of ACE inhibitory peptides have similar structure with purified peptides KNFL from food protein. | column: IC50 (μM) || Researchers have investigated the structure-activity relationship of ACE inhibitor peptides, such as the peptide chain length, amino acid sequence, C- terminal, and N-terminal amino acid sequence. Most of the ACE inhibitors are reported to have small molecular weights (2–12 amino acids), and there are four amino acids in the newly identified peptide KNFL. […] In this study, the C-terminal amino acids (phenylalanine and leucine) of the KNFL peptide have stro ...

[2] = Wakame, conventional approach, ref [28]
[3] = Volutharpa ampullaceal perryi, affinity purification/ Zn-SBA-15-ACE, ref [12]

For N=C(N)NCCC[C@H](N)C(=O)O [arginine], the “Lipophilicity Parameters” value [1] is listed as −4.5.
For NC(=O)C[C@H](N)C(=O)O [asparagine], the “Lipophilicity Parameters” value [1] is given as −3.5.
For N[C@@H](CC(=O)O)C(=O)O [aspartic acid], the “Lipophilicity Parameters” value [1] is given as −3.5.
In the case of N[C@@H](CCC(=O)O)C(=O)O [glutamic acid], the “Lipophilicity Parameters” value [1] is given as −3.5.
In the case of NC(=O)CC[C@H](N)C(=O)O [glutamine], the “Lipophilicity Parameters” value [1] is listed as −3.5.
In the case of N[C@@H](Cc1c[nH]cn1)C(=O)O [histidine], the “Lipophilicity Parameters” value [1] is listed as −3.2.
For CC(C)C[C@H](N)C(=O)O [leucine], the “Lipophilicity Parameters” value [1] is given as 3.8.
For NCCCC[C@H](N)C(=O)O [lysine], the “Lipophilicity Parameters” value [1] is listed as −3.9.
In the case of N[C@@H](CO)C(=O)O [serine], the “Lipophilicity Parameters” value [1] is listed as −0.8.
In the case of AIYK, the IC50 (ACE; [2]) is given as 213 µM.
In the case of GMKCAF, the IC50 (ACE; lizard fish, affinity purification/ Magnetic agarose-ACE, ref [6]) is given as 45.7 ± 1.1 µM.
In the case of HLHT, the IC50 (ACE; Pinctada fucata martensii, affinity purification/ IMAM @ mPEG, ref [10]) is listed as 458.1 ± 3.24 µM.
For IVTNWDDMGK, the IC50 (ACE; [3]) is given as 2080 µM.
For KFYG, the IC50 (ACE; [2]) is listed as 90.5 µM.
For KNGDGY, the IC50 (ACE; Cuttlefish, ref [49]) is listed as 51.6 µM.
For LLYQEPVLGPVR, the IC50 (ACE; casein, affinity purification/ IMAM @ mPEG, ref [9]) is given as 274 ± 5 µM.
For RVCLP, the IC50 (ACE; lizard fish, conventional approach, ref [29]) is listed as 175 µM.
In the case of RYRP, the IC50 (ACE; lizard fish, affinity purification/ IMAC-Ni^2+, ref [39]) is listed as 52 µM.
For VGPAGRRG, the IC50 (ACE; [3]) is listed as 4660 µM.
In the case of WYLHYA, the IC50 (ACE; casein, affinity purification/ IMAC-Ni^2+, ref [41]) is given as 16.2 µM.
For YKYY, the IC50 (ACE; [2]) is given as 64.2 µM.
In the case of YNKL, the IC50 (ACE; [2]) is given as 21 µM.
